Activity calls are given as the source filed them.
target: Chromodomain-helicase-DNA-binding protein 4 (Homo sapiens, UniProt Q14839)
Also: in the data inactive means no Kd found up to 30 µM.

Structure (SMILES) | Kd
CN1CCC(COc2cnc(-c3cccc(Cn4nc(-c5cccc(C#N)c5)ccc4=O)c3)nc2)CC1 [TEPOTINIB] | > 30 µM (inactive)

target: Protein kinase C alpha type (Homo sapiens, UniProt P17252)

Structure (SMILES) | Kd
C[C@@H](Nc1cc(F)cc(F)c1)c1cc(C(=O)N(C)C)cc2c(=O)cc(N3CCOCC3)oc12 [AZD-8186] | > 30 µM (inactive)
CN1CCC(COc2cnc(-c3cccc(Cn4nc(-c5cccc(C#N)c5)ccc4=O)c3)nc2)CC1 [TEPOTINIB] | > 30 µM (inactive)

target: Myosin-14 (Homo sapiens, UniProt Q7Z406)

Structure (SMILES) | Kd
C[C@@H](Nc1cc(F)cc(F)c1)c1cc(C(=O)N(C)C)cc2c(=O)cc(N3CCOCC3)oc12 [AZD-8186] | > 30 µM (inactive)

target: Ephrin type-A receptor 2 (Homo sapiens, UniProt P29317)
Sequence (P29317 whole entry): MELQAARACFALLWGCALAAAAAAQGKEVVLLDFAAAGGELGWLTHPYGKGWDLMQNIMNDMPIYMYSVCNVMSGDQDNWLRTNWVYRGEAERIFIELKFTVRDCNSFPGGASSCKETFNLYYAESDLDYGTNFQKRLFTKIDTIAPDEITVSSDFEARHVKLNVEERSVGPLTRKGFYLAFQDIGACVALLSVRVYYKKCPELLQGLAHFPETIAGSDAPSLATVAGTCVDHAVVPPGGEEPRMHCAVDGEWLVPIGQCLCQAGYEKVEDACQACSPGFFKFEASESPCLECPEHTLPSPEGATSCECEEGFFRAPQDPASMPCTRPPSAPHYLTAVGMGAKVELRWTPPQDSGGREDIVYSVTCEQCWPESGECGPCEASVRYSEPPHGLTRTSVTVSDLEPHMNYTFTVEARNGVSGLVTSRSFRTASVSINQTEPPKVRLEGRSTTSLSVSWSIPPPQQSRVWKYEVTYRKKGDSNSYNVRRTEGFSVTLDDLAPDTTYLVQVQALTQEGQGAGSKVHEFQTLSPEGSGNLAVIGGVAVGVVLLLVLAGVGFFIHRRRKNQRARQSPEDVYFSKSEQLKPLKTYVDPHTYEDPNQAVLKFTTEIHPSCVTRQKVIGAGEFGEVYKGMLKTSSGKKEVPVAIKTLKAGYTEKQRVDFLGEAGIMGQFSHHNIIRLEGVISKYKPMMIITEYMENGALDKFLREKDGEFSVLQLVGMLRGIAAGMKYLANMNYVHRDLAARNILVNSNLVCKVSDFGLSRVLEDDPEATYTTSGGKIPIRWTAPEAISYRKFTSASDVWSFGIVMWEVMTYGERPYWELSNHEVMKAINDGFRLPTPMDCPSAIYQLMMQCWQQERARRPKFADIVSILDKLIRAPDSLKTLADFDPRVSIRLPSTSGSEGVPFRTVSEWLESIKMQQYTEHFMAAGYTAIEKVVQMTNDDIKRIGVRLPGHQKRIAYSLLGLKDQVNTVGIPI

Structure (SMILES) | Kd
C[C@@H](Nc1cc(F)cc(F)c1)c1cc(C(=O)N(C)C)cc2c(=O)cc(N3CCOCC3)oc12 [AZD-8186] | > 30 µM (inactive)
CN1CCC(COc2cnc(-c3cccc(Cn4nc(-c5cccc(C#N)c5)ccc4=O)c3)nc2)CC1 [TEPOTINIB] | > 30 µM (inactive)

target: Inosine-5'-monophosphate dehydrogenase 2 (Homo sapiens, UniProt P12268)

Structure (SMILES) | Kd
CN1CCC(COc2cnc(-c3cccc(Cn4nc(-c5cccc(C#N)c5)ccc4=O)c3)nc2)CC1 [TEPOTINIB] | > 30 µM (inactive)

target: Wee1-like protein kinase (Homo sapiens, UniProt P30291)

Structure (SMILES) | Kd
C[C@@H](Nc1cc(F)cc(F)c1)c1cc(C(=O)N(C)C)cc2c(=O)cc(N3CCOCC3)oc12 [AZD-8186] | > 30 µM (inactive)
CN1CCC(COc2cnc(-c3cccc(Cn4nc(-c5cccc(C#N)c5)ccc4=O)c3)nc2)CC1 [TEPOTINIB] | > 30 µM (inactive)

target: T1, Serine/threonine-protein kinase STK11 (Homo sapiens, UniProt Q15831)
T1 sequence (Q15831 whole entry): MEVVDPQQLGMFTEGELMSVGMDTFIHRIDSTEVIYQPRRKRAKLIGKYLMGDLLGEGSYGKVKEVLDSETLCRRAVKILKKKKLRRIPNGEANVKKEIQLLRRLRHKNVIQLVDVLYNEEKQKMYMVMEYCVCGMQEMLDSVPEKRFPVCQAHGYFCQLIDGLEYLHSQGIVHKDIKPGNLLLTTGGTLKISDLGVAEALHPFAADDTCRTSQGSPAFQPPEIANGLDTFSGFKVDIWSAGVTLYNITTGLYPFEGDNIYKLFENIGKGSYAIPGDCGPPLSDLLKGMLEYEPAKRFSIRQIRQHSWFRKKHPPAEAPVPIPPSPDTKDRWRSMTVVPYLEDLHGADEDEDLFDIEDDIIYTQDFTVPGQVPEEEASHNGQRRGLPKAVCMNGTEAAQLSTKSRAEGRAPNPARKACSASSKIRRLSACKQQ

Structure (SMILES) | Kd
C[C@@H](Nc1cc(F)cc(F)c1)c1cc(C(=O)N(C)C)cc2c(=O)cc(N3CCOCC3)oc12 [AZD-8186] | > 30 µM (inactive)
CN1CCC(COc2cnc(-c3cccc(Cn4nc(-c5cccc(C#N)c5)ccc4=O)c3)nc2)CC1 [TEPOTINIB] | > 30 µM (inactive)

target: T2, Phenylalanine--tRNA ligase beta subunit (Homo sapiens, UniProt Q9NSD9)
T2 sequence (Q9NSD9 whole entry): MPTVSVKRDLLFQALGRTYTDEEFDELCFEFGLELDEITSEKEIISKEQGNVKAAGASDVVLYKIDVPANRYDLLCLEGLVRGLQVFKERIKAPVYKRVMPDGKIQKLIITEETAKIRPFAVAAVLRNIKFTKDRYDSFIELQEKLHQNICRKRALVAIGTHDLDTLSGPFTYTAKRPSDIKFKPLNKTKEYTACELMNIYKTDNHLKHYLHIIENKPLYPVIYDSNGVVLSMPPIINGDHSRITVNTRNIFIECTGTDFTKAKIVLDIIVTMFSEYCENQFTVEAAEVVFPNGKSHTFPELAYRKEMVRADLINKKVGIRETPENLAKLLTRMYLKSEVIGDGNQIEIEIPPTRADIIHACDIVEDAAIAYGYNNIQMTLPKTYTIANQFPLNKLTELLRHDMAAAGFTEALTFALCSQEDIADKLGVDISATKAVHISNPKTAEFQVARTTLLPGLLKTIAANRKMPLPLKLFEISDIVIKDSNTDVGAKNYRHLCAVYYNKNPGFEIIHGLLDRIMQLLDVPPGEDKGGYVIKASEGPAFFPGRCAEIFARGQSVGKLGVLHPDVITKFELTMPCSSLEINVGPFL

Structure (SMILES) | Kd
C[C@@H](Nc1cc(F)cc(F)c1)c1cc(C(=O)N(C)C)cc2c(=O)cc(N3CCOCC3)oc12 [AZD-8186] | > 30 µM (inactive)
CN1CCC(COc2cnc(-c3cccc(Cn4nc(-c5cccc(C#N)c5)ccc4=O)c3)nc2)CC1 [TEPOTINIB] | > 30 µM (inactive)

target: Adenosine kinase (Homo sapiens, UniProt P55263)

Structure (SMILES) | Kd
C[C@@H](Nc1cc(F)cc(F)c1)c1cc(C(=O)N(C)C)cc2c(=O)cc(N3CCOCC3)oc12 [AZD-8186] | > 30 µM (inactive)
CN1CCC(COc2cnc(-c3cccc(Cn4nc(-c5cccc(C#N)c5)ccc4=O)c3)nc2)CC1 [TEPOTINIB] | > 30 µM (inactive)

target: Putative heat shock protein HSP 90-beta 2 (Homo sapiens, UniProt Q58FF8)
Sequence (Q58FF8 whole entry): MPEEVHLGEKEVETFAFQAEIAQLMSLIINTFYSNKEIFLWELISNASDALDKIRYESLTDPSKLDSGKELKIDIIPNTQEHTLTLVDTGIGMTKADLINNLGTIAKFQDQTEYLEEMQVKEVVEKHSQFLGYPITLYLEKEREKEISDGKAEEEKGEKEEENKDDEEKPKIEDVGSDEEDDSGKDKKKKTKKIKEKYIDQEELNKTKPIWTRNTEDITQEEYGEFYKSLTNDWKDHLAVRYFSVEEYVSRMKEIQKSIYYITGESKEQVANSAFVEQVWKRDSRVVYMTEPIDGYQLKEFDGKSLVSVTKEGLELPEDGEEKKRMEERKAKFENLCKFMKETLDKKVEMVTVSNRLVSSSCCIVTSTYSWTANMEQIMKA

Structure (SMILES) | Kd
C[C@@H](Nc1cc(F)cc(F)c1)c1cc(C(=O)N(C)C)cc2c(=O)cc(N3CCOCC3)oc12 [AZD-8186] | > 30 µM (inactive)
CN1CCC(COc2cnc(-c3cccc(Cn4nc(-c5cccc(C#N)c5)ccc4=O)c3)nc2)CC1 [TEPOTINIB] | > 30 µM (inactive)

target: 26S proteasome regulatory subunit 6B (Homo sapiens, UniProt P43686)
Sequence (P43686 whole entry): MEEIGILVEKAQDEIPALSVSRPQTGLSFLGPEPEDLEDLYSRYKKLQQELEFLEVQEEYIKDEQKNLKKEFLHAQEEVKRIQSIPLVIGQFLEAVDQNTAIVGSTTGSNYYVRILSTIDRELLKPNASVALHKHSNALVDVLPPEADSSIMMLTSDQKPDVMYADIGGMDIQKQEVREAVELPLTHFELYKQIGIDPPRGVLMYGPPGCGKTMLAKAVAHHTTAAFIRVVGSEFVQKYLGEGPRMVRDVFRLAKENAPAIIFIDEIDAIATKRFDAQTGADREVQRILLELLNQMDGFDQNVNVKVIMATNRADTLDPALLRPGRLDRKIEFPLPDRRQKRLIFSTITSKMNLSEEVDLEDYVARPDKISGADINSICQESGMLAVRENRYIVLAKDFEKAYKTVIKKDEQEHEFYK

Structure (SMILES) | Kd
C[C@@H](Nc1cc(F)cc(F)c1)c1cc(C(=O)N(C)C)cc2c(=O)cc(N3CCOCC3)oc12 [AZD-8186] | > 30 µM (inactive)
CN1CCC(COc2cnc(-c3cccc(Cn4nc(-c5cccc(C#N)c5)ccc4=O)c3)nc2)CC1 [TEPOTINIB] | > 30 µM (inactive)

target: T3, Tyrosine--tRNA ligase, cytoplasmic (Homo sapiens, UniProt P54577)
T3 sequence (P54577 whole entry): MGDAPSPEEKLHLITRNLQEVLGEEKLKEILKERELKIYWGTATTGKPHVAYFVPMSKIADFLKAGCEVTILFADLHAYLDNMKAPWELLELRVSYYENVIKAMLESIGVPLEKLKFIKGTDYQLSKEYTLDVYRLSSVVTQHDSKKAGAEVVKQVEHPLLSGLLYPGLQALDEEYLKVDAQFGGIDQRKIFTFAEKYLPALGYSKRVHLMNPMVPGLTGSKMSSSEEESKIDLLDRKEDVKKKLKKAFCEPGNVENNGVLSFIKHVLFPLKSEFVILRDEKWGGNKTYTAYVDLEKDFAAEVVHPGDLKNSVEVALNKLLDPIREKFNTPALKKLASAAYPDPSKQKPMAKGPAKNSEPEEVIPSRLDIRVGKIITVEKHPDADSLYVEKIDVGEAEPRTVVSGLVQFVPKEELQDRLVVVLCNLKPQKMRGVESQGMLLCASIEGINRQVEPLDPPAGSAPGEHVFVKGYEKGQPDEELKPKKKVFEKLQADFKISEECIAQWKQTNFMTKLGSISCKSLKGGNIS

Structure (SMILES) | Kd
C[C@@H](Nc1cc(F)cc(F)c1)c1cc(C(=O)N(C)C)cc2c(=O)cc(N3CCOCC3)oc12 [AZD-8186] | > 30 µM (inactive)
CN1CCC(COc2cnc(-c3cccc(Cn4nc(-c5cccc(C#N)c5)ccc4=O)c3)nc2)CC1 [TEPOTINIB] | > 30 µM (inactive)

target: T4, Electron transfer flavoprotein subunit beta (Homo sapiens, UniProt P38117)
T4 sequence (P38117 whole entry): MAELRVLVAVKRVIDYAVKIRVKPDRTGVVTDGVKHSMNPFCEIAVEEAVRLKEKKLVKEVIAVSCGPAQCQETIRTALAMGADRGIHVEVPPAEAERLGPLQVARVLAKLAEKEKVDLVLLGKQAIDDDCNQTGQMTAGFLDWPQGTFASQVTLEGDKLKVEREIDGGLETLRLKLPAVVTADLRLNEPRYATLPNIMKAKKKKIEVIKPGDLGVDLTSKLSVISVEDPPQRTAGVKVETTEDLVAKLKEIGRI

Structure (SMILES) | Kd
C[C@@H](Nc1cc(F)cc(F)c1)c1cc(C(=O)N(C)C)cc2c(=O)cc(N3CCOCC3)oc12 [AZD-8186] | > 30 µM (inactive)
CN1CCC(COc2cnc(-c3cccc(Cn4nc(-c5cccc(C#N)c5)ccc4=O)c3)nc2)CC1 [TEPOTINIB] | > 30 µM (inactive)

target: Mitogen-activated protein kinase kinase kinase 4 (Homo sapiens, UniProt Q9Y6R4)
Sequence (Q9Y6R4 whole entry): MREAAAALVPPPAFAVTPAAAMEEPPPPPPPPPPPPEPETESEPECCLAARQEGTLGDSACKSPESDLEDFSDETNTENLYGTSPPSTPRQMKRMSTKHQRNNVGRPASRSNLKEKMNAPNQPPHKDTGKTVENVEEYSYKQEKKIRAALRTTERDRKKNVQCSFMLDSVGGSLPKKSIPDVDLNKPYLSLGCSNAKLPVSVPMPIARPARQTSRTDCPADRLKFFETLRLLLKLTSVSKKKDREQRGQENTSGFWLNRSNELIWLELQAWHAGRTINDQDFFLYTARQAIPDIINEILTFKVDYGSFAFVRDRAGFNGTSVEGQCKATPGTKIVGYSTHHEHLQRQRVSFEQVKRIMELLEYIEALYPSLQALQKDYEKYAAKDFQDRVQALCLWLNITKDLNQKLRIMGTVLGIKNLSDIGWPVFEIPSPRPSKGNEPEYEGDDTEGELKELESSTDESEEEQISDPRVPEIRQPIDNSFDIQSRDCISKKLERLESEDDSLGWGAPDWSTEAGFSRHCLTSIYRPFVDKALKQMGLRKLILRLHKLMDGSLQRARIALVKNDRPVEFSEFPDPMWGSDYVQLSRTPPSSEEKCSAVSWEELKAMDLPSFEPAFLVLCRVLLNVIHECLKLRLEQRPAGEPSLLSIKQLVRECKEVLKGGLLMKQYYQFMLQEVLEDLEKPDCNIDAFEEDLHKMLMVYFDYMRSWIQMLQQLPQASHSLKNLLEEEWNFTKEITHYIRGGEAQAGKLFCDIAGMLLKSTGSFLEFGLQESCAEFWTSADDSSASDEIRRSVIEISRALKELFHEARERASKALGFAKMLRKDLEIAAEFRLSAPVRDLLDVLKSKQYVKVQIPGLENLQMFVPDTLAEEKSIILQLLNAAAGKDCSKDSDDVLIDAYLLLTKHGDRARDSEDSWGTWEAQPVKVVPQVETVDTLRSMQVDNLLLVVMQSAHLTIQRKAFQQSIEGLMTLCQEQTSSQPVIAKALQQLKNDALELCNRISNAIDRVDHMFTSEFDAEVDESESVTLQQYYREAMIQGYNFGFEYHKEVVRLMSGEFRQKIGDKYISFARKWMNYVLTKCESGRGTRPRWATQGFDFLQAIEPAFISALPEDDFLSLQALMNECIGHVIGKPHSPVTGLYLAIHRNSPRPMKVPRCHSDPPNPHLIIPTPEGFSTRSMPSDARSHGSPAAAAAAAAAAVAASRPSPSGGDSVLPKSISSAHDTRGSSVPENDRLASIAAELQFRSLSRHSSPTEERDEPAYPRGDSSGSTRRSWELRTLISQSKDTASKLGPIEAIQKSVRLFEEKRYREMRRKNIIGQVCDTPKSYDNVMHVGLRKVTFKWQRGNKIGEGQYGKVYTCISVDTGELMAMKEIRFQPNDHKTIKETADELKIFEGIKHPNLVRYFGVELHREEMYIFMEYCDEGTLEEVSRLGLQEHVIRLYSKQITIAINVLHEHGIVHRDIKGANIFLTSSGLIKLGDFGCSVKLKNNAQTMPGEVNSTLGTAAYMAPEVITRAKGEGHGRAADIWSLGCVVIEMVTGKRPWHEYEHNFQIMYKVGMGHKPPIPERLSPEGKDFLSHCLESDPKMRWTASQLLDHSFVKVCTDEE

Structure (SMILES) | Kd
C[C@@H](Nc1cc(F)cc(F)c1)c1cc(C(=O)N(C)C)cc2c(=O)cc(N3CCOCC3)oc12 [AZD-8186] | > 30 µM (inactive)
CN1CCC(COc2cnc(-c3cccc(Cn4nc(-c5cccc(C#N)c5)ccc4=O)c3)nc2)CC1 [TEPOTINIB] | > 30 µM (inactive)

target: Interleukin-1 receptor-associated kinase 1 (Homo sapiens, UniProt P51617)
Sequence (P51617 whole entry): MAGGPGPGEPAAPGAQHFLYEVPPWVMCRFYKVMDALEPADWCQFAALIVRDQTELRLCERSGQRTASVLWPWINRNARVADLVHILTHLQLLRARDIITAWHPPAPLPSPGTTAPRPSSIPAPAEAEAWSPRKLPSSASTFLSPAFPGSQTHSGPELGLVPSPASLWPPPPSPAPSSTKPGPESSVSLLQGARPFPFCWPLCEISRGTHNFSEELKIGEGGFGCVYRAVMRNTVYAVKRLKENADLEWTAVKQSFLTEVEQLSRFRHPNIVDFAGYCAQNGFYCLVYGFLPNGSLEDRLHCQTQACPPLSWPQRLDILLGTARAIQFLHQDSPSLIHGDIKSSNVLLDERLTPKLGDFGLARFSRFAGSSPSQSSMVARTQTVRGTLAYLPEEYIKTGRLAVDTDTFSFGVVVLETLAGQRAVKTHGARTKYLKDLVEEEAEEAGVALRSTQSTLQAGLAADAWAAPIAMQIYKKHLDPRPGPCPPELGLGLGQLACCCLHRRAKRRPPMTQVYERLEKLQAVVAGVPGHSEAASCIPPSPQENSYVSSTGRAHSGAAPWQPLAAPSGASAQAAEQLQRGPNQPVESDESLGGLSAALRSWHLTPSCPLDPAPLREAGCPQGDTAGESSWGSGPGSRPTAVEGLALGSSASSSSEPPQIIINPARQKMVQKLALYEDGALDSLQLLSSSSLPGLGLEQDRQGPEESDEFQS

Structure (SMILES) | Kd
C[C@@H](Nc1cc(F)cc(F)c1)c1cc(C(=O)N(C)C)cc2c(=O)cc(N3CCOCC3)oc12 [AZD-8186] | > 30 µM (inactive)
CN1CCC(COc2cnc(-c3cccc(Cn4nc(-c5cccc(C#N)c5)ccc4=O)c3)nc2)CC1 [TEPOTINIB] | > 30 µM (inactive)

— ChEMBL document CHEMBL3991601, “The target landscape of clinical kinase drugs” (Science, 2017)
